Laboratory results from patent US6737383B1, “Herbicidal oxadiazolidines” (priority 1999, dated 2004).

Assays:
bedstraw = experiment: Test B pre/postemergence bedstraw; assay type: in vivo, Galium aparine
Procedure, shortened: (§1)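 Test chemicals in a non-phytotoxic solvent mixture with surfactant were sprayed preemergence onto planted seeds and postemergence onto plants 2 to 18 cm tall (1- to 4-leaf stage). After twelve to sixteen days in a greenhouse, injury was visually rated against untreated controls from 0 (no effect) to 10 (complete control).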

blackgrass = experiment: Test B pre/postemergence blackgrass; assay type: in vivo, Alopecurus myosuroides
Procedure, shortened: as §1

surinam grass = experiment: Test B pre/postemergence surinam grass; assay type: in vivo, Brachiaria decumbens
Procedure, shortened: as §1

cocklebur = experiment: Test B pre/postemergence cocklebur; assay type: in vivo, Xanthium strumarium
Procedure, shortened: as §1

giant foxtail = experiment: Test B pre/postemergence giant foxtail; assay type: in vivo, Setaria faberii
Procedure, shortened: as §1

morningglory = experiment: Test B pre/postemergence morningglory; assay type: in vivo, Ipomoea hederacea
Procedure, shortened: as §1

pigweed = experiment: Test B pre/postemergence pigweed; assay type: in vivo, Amaranthus retroflexus
Procedure, shortened: as §1

rape = experiment: Test B pre/postemergence rape; assay type: in vivo, Brassica napus
Procedure, shortened: as §1

soybean = experiment: Test B pre/postemergence soybean; assay type: in vivo, Glycine max
Procedure, shortened: as §1

sugar beet = experiment: Test B pre/postemergence sugar beet; assay type: in vivo, Beta vulgaris; conditions: for Plant response rating, Sugarbeets: Rate 250 g/ha
Procedure, shortened: as §1

wheat = experiment: Test B pre/postemergence wheat; assay type: in vivo, Triticum aestivum; conditions: for Plant response rating, Wheat: Rate 250 g/ha
Procedure, shortened: as §1

wild oat = experiment: Test B pre/postemergence wild oat; assay type: in vivo, Avena fatua; conditions: for Plant response rating, Wild oats: Rate 250 g/ha
Procedure, shortened: as §1

purple nutsedge = experiment: Test B pre/postemergence purple nutsedge; assay type: in vivo, Cyperus rotundus
Procedure, shortened: as §1

smallflower flatsedge = experiment: Test B flood test smallflower flatsedge; assay type: in vivo, Cyperus difformis
Procedure, shortened: (§2)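 Each value is a visual injury score relative to controls, with 10 meaning complete control and 0 no effect. Evaluation took place twelve to sixteen days after the 2-leaf-stage plants were treated and kept in the greenhouse.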

duck salad = experiment: Test B flood test duck salad; assay type: in vivo, Heteranthera limosa
Procedure, shortened: as §2

bamyardgrass = experiment: Test B flood test barnyardgrass; assay type: in vivo, Echinochloa crus-galli
Procedure, shortened: as §2

[1] = Postemergence, Rate 62 g/ha, scale 0 to 10, 0 is no effect, 10 is complete control
[2] = Postemergence, Rate 250 g/ha, scale 0 to 10, 0 no effect, 10 complete control
[3] = Preemergence, Rate 62 g/ha, scale 0 to 10 (0 no effect, 10 complete control)
[4] = Preemergence, Rate 125 g/ha, scale 0 to 10 (0 no effect, 10 complete control)
[5] = Preemergence, Rate 250 g/ha, scale of 0 to 10 where 0 is no effect and 10 is complete control
[6] = Preemergence, Rate 500 g/ha, scale 0 (no effect) to 10 (complete control)
[7] = Rate 125 g/ha, Postemergence, scale 0 to 10, 0 no effect, 10 complete control
[8] = Rate 500 g/ha, Postemergence, scale 0 to 10, 0 no effect, 10 complete control
[9] = Postemergence, Rate 125 g/ha, scale of 0 to 10 where 0 is no effect and 10 is complete control
[10] = Rate 250 g/ha, Postemergence, scale 0 to 10, 0 is no effect, 10 is complete control
[11] = Preemergence, Rate 125 g/ha, 0 is no effect, 10 is complete control
[12] = Preemergence, scale of 0 to 10 where 0 is no effect and 10 is complete control
[13] = Postemergence, scale 0 to 10, 0 is no effect, 10 is complete control
[14] = Postemergence (flood test species), Rate 125 g/ha, scale of 0 to 10 where 0 is no effect and 10 is complete control
[15] = Rate 500 g/ha, listed under Postemergence (flood test species), scale 0 to 10, 0 no effect, 10 complete control
[16] = flood test, listed under Postemergence, Rate 250 g/ha, scale 0 to 10, 0 no effect, 10 complete control

Cc1nn(C)c(Cl)c1-n1c(=O)on(C(=O)N(c2ccc(F)cc2F)C(C)C)c1=O [Compound 96]
1: Plant response rating, B. signalgrass (surinam grass; [5]) | Morningglory plant response rating (morningglory; [1]) | Morningglory plant response rating (morningglory; [9]) | Morningglory plant response rating (morningglory; [2]) | Soybean plant response rating (soybean; [1]) | Soybean plant response rating (soybean; [9]) | Plant response rating, Soybean (soybean; [10]) | Soybean plant response rating (soybean; [8])
0: Bedstraw plant response rating (bedstraw; [1]) | Bedstraw plant response rating (bedstraw; [2]) | Bedstraw plant response rating (bedstraw; [3]) | Plant response rating, Bedstraw (bedstraw; [4]) | Plant response rating, Bedstraw (bedstraw; [5]) | Bedstraw plant response rating (bedstraw; [7]) | Bedstraw plant response rating (bedstraw; [8]) | Blackgrass plant response rating (blackgrass; [1]) | Blackgrass plant response rating (blackgrass; [9]) | Blackgrass plant response rating (blackgrass; [2]) | Blackgrass plant response rating (blackgrass; [3]) | Blackgrass plant response rating (blackgrass; [8]) | B. signalgrass plant response rating (surinam grass; [1]) | B. signalgrass plant response rating (surinam grass; [2]) | B. signalgrass plant response rating (surinam grass; [3]) | Plant response rating, B. signalgrass (surinam grass; [4]) | B. signalgrass plant response rating (surinam grass; [7]) | B. signalgrass plant response rating (surinam grass; Rate 500 g/ha, Postemergence, scale of 0 to 10 where 0 is no effect and 10 is complete control) | Cocklebur plant response rating (cocklebur; [1]) | Cocklebur plant response rating (cocklebur; [9]) | Cocklebur plant response rating (cocklebur; [2]) | Cocklebur plant response rating (cocklebur; [3]) | Plant response rating, Cocklebur (cocklebur; [4]) | Plant response rating, Cocklebur (cocklebur; [5]) | Cocklebur plant response rating (cocklebur; [6]) | Giant foxtail plant response rating (giant foxtail; [1]) | Giant foxtail plant response rating (giant foxtail; [9]) | Giant foxtail plant response rating (giant foxtail; [2]) | Morningglory plant response rating (morningglory; [3]) | Plant response rating, Morningglory (morningglory; [4]) | Plant response rating, Morningglory (morningglory; [5]) | Morningglory plant response rating (morningglory; [6]) | Redroot pigweed plant response rating (pigweed; [1]) | Redroot pigweed plant response rating (pigweed; [9]) | Plant response rating, Redroot pigweed (pigweed; [10]) | Redroot pigweed plant response rating (pigweed; [8]) | Rape plant response rating (rape; [1]) | Rape plant response rating (rape; [9]) | Rape plant response rating (rape; [2]) | Rape plant response rating (rape; [3]) | Plant response rating, Rape (rape; [4]) | Plant response rating, Rape (rape; [5]) | Rape plant response rating (rape; [8]) | Soybean plant response rating (soybean; [3]) | Plant response rating, Soybean (soybean; [4]) | Plant response rating, Soybean (soybean; [5]) | Soybean plant response rating (soybean; [6]) | Sugarbeets plant response rating (sugar beet; [1]) | Sugarbeets plant response rating (sugar beet; [9]) | Sugarbeets plant response rating (sugar beet; [3]) | Sugarbeets plant response rating (0 to 10 scale) (sugar beet; [11]) | Plant response rating, Sugarbeets (sugar beet; [12]) | Plant response rating, Sugarbeets (sugar beet; [13]) | Sugarbeets plant response rating (sugar beet; [8]) | Wheat plant response rating (wheat; [1]) | Wheat plant response rating (wheat; [9]) | Wheat plant response rating (wheat; [3]) | Wheat plant response rating (0 to 10 scale) (wheat; [11]) | Plant response rating, Wheat (wheat; [12]) | Wheat plant response rating (wheat; [6]) | Plant response rating, Wheat (wheat; [13]) | Wheat plant response rating (wheat; [8]) | Wild oats plant response rating (wild oat; [1]) | Wild oats plant response rating (wild oat; [9]) | Wild oats plant response rating (wild oat; [3]) | Wild oats plant response rating (0 to 10 scale) (wild oat; [11]) | Plant response rating, Wild oats (wild oat; [13]) | Wild oats plant response rating (wild oat; [8]) | Nutsedge plant response rating (purple nutsedge; [1]) | Nutsedge plant response rating (purple nutsedge; [9]) | Nutsedge plant response rating (purple nutsedge; [2]) | Nutsedge plant response rating (purple nutsedge; [3]) | Plant response rating, Nutsedge (purple nutsedge; [4]) | Plant response rating, Nutsedge (purple nutsedge; [5]) | Nutsedge plant response rating (purple nutsedge; [6]) | Nutsedge plant response rating (purple nutsedge; [8]) | S. Flatsedge plant response rating (smallflower flatsedge; [14]) | S. Flatsedge plant response rating (smallflower flatsedge; [1]) | Plant response rating, S. Flatsedge (smallflower flatsedge; Rate 250 g/ha, Postemergence (flood test), scale 0 to 10, 0 is no effect, 10 is complete control) | Ducksalad plant response rating (duck salad; [14]) | Ducksalad plant response rating (duck salad; [1]) | Ducksalad plant response rating (duck salad; [15]) | Ducksalad plant response rating (duck salad; [16]) | Barnyardgrass plant response rating (bamyardgrass; [1]) | Barnyardgrass plant response rating (bamyardgrass; Rate 125 g/ha, Postemergence section (flood test species), scale 0 to 10, 0 no effect, 10 complete control) | Barnyardgrass plant response rating (bamyardgrass; [15]) | Barnyardgrass plant response rating (bamyardgrass; [16])
3: Plant response rating, Blackgrass (blackgrass; [4]) | Plant response rating, Blackgrass (blackgrass; [5]) | Plant response rating, Giant foxtail (giant foxtail; [5]) | Giant foxtail plant response rating (giant foxtail; [8]) | Rape plant response rating (rape; [6]) | S. Flatsedge plant response rating (smallflower flatsedge; [15])
2: Bedstraw plant response rating (bedstraw; [6]) | B. signalgrass plant response rating (surinam grass; [6]) | Cocklebur plant response rating (cocklebur; [8]) | Giant foxtail plant response rating (giant foxtail; [3]) | Plant response rating, Giant foxtail (giant foxtail; [4]) | Morningglory plant response rating (morningglory; [8]) | Sugarbeets plant response rating (sugar beet; [6]) | Plant response rating, Wild oats (wild oat; [12])
6: Plant response rating, Redroot pigweed (pigweed; [4])
8: Blackgrass plant response rating (blackgrass; [6]) | Giant foxtail plant response rating (giant foxtail; [6]) | Redroot pigweed plant response rating (pigweed; [6])
7: Plant response rating, Redroot pigweed (pigweed; [5]) | Wild oats plant response rating (wild oat; [6])
